Reference: patent EP1582213A1, “Use of adenosine for treating surgery related ischemia” (Ludwig-Maximilians-Universität München, priority 2004, dated 2005)

How the values were obtained:
Assay type in all cases: in vivo, human
[1] = Determination of bilirubin in blood samples of patients after partial liver resection
Procedure: (§1) Adenosine group: The members of this group were experiencing liver trauma during resection and additional organ ischemia during resection (Pringle-manoeuvre, duration 30 to 45 minutes). Liver protection was realised by intermitting central venous administration of adenosine (infusion duration 10 minutes, 120 to 150 µg/kg body weight/min) 20 minutes prior to resection/ischemia, and a new continuous infusion immediately after reperfusion (infusion duration 70 to 90 minutes, 120 to 150 µg/kg body weight/min).
(§2) The following tests were carried out in order to assess the post-operational organ functions: • 1. Quick test • 2. Determination of the bilirubin • 3. Lactate for monitoring the energetic situation
Any of the results obtained by applying these tests on blood samples taken from the members of the various study groups, are depicted in table 1: Table 1: […]

[2] = Lactate in serum for monitoring the energetic situation after partial liver resection
Procedure: as §1, §2
(§3) Any of the results obtained by applying these tests on blood samples taken from the members of the various study groups, are depicted in table 1: Table 1:
Also using lactate as a parameter for cytoprotective effects confirms the significant effectiveness of adenosine administration. The lactate concentration in serum is regarded as a marker for the extent of anaerobic metabolism due to lack of oxygen caused by a cellular lack of energy. The lactate concentrations in the serum are highest post-procedure in group 2, where surgical liver trauma and ischemia/reperfusion was combined.

[3] = system: beta 2 adhesion molecules on circulating granulocytes; test: Granulocyte function: expression of beta 2-integrins on circulating granulocytes, FACScan with FITC marked anti-CD18 antibody (Fig. 3); conditions: observed immediately after ischemia and reperfusion; adenosine administered prior and after ischemia; vs. control groups 1 and 2
Procedure: as §1
(§4) To assess protection conferred by adenosine on the anti-inflammation branch, both interleukin 6 and granulocyte functions were determined, whereby the results are presented in Figs. 2 and 3.
The further parameter for anti-inflammation, i. e. granulocyte function, was measured as the inhibition of potential cytotoxic functions of white blood cells due to liver ischemia which was measured using the expression of beta 2-intergrins through the monoclonal anti-CD18 antibody. More particularly, the expression was determined prior to ischemia and 3, 30 and 120 minutes after reperfusion. The cells were analysed using a FACScan and a FITC marked anti-CD18 antibody. […] As indicated in Fig. 3 $ p < 0.05 vs. control group 1, # p < 0.05 vs. control group 2.

interleukin 6 = test: Interleukin 6 titre in blood of patients before and after liver resection (Fig. 2); conditions: post-procedure increase, first and second day after resection; adenosine group vs. control groups; three to five patients per group
Procedure: as §1, §4
As depicted in Fig. 2, the level of interleukin 6 increased in any of the four groups, whereby each group consisted of three to five patients. Such increase is typically observed as a post-procedure reaction. The serum titres of the pro-inflammatory cytokine interleukin 6 can increase by three magnitudes compared to the pre-procedure titre and were highest in control group 2, where both surgical liver trauma and ischemia/reperfusion were combined.

[4] = Quick test (prothrombin time) on blood samples of patients after partial liver resection
Procedure: as §1, §2, §3
The quick test serves as a parameter for the assessment of the protein synthesis performance of the liver after the procedure.

[5] = first postoperative day, adenosine 120 to 150 µg/kg body weight/min prior to resection/ischemia and after reperfusion, mean
[6] = second postoperative day, same regimen, mean

## Nc1ncnc2c1ncn2[C@@H]1O[C@H](CO)[C@@H](O)[C@H]1O [Adenosine, adenosine]
[1]; adenosine group, post-procedure vs. pre-procedure values
  bilirubin concentration: remained unchanged compared to pre- procedure values
[1]; [5]
  bili-1: #0,6 mg/dI
[1]; preoperative baseline, bilirubin, mean of adenosine group, norm <1,0
  bili pre: 0,4 mg/dI
[1]; [6]
  bili-2: #0,5 mg/dI
[2]; [5]
  Lactate-1: 1,8 mmo I/I
[2]; intravenous systemic administration of adenosine prior and after resection and ischemia, compared with control group 2
  initial increase in the lactate on the first post-procedure day: less pronounced
[2]; preoperative baseline, lactate-concentration, mean of adenosine group, norm <2
  Lactat pre: <1,0 mmo I/I
[2]; [6]
  Lactate-2: 1,2 mmo I/I
[3]
  activation of granulocytes circulating in the blood: effectively avoided
Interleukin 6
  IL 6 titre: significantly less pronounced
[4]; adenosine group compared with the control groups
  value of the quick test on the first and second day after surgery (liver synthesis performance): higher in the adenosine group
[4]; first postoperative day, partial liver resection with Pringle-manoeuvre 30 to 45 minutes, adenosine central venous 120 to 150 µg/kg body weight/min, 10 minutes given 20 minutes prior to resection/ischemia and 70 to 90 minutes after reperfusion, mean
  PT(Quick)1: #*66%
[4]; preoperative baseline, Prothrombin Time expressed as Quick-values, mean of adenosine group, norm 70-100 %
  PT(Quick)pre: 100%
[4]; [6]
  PT(Quick)2: 72%
